Targets include EPHB3 (Homo sapiens, UniProt P54753); YANK1 (Homo sapiens, UniProt Q8WU08); EGFR(L858R+T790M) (Homo sapiens, UniProt P00533, L858R/T790M); RIOK2 (Homo sapiens, UniProt Q9BVS4); ERK2 (Homo sapiens, UniProt P28482); SRPK1 (Homo sapiens, UniProt Q96SB4); PIK3CD (Homo sapiens, UniProt O00329); FLT3(D835H) (Homo sapiens, UniProt P36888, D835H); PRKCH (Homo sapiens, UniProt P24723); YANK3 (Homo sapiens, UniProt Q86UX6).

Holding throughout (assay): KINOMEscan
Holding throughout (format): binding
What all share (conditions): 1 μM

The target of the next experiment is T1, KIT(V559D+T670I) (Homo sapiens, UniProt P10721, T670I/V559D).
T1 construct: purchased Eurofins DiscoverX Corporation

The target in the next experiment is T2, FYN (Homo sapiens, UniProt P06241).
T2 construct: purchased Eurofins DiscoverX Corporation

In another experiment the target is T3, CAMK2B (Homo sapiens, UniProt Q13554).
T3 construct: purchased Eurofins DiscoverX Corporation (KINOMEscan)

For the next experiment, the target named is T4, GAK (Homo sapiens, UniProt O14976).
T4 construct: purchased Eurofins DiscoverX Corporation

For another experiment, the target named is T5, MARK2 (Homo sapiens, UniProt Q7KZI7).
T5 construct: purchased Eurofins DiscoverX Corporation

Another experiment has as its target T6, TNK2 (Homo sapiens, UniProt Q07912).
T6 construct: purchased Eurofins DiscoverX Corporation

A further experiment addresses T7, TESK1 (Homo sapiens, UniProt Q15569).
T7 construct: purchased Eurofins DiscoverX Corporation

The target in another experiment is T8, MYLK (Homo sapiens, UniProt Q15746).
T8 construct: purchased Eurofins DiscoverX Corporation

Experiment [1] addresses T9, JAK1(JH1domain-catalytic) (Homo sapiens, UniProt P23458).
T9 construct: JAK1(JH1domain-catalytic); purchased Eurofins DiscoverX (KINOMEscan)

The target in the next experiment is T10, LIMK2 (Homo sapiens, UniProt P53671).
T10 construct: purchased Eurofins DiscoverX Corporation

The target in another experiment is T11, CAMK4 (Homo sapiens, UniProt Q16566).
T11 construct: purchased Eurofins DiscoverX Corporation (KINOMEscan)

Data on one compound can be found in PMC10879502, “Linking ATP and allosteric sites to achieve superadditive binding with bivalent EGFR kinase inhibitors” (Communications Chemistry, 2024).

Sequence of PIK3CD (O00329 whole entry): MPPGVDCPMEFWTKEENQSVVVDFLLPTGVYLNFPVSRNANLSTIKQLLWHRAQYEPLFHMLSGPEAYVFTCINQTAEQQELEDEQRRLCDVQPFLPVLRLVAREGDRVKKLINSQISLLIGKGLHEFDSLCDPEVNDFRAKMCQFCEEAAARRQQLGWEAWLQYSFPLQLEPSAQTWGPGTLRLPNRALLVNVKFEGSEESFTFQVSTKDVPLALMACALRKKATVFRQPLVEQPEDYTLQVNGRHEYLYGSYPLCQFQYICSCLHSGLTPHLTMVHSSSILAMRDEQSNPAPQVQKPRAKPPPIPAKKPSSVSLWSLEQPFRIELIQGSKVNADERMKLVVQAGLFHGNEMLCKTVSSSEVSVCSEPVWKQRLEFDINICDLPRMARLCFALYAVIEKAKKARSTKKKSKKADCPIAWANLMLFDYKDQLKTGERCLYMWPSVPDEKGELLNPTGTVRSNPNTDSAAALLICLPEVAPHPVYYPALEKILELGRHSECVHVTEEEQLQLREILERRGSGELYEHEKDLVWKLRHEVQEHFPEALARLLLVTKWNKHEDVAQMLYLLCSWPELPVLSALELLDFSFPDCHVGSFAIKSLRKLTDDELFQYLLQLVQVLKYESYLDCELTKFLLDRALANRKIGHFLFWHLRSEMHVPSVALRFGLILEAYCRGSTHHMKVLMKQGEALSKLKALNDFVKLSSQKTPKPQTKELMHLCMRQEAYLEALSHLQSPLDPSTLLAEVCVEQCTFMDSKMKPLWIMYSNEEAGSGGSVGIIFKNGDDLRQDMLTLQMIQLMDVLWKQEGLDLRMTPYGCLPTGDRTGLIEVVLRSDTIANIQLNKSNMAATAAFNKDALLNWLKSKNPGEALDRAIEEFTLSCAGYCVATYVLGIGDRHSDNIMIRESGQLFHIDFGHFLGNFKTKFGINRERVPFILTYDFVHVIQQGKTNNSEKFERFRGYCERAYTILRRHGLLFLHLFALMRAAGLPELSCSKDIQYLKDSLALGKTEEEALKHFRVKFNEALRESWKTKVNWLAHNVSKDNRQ
T2 sequence (P06241 whole entry): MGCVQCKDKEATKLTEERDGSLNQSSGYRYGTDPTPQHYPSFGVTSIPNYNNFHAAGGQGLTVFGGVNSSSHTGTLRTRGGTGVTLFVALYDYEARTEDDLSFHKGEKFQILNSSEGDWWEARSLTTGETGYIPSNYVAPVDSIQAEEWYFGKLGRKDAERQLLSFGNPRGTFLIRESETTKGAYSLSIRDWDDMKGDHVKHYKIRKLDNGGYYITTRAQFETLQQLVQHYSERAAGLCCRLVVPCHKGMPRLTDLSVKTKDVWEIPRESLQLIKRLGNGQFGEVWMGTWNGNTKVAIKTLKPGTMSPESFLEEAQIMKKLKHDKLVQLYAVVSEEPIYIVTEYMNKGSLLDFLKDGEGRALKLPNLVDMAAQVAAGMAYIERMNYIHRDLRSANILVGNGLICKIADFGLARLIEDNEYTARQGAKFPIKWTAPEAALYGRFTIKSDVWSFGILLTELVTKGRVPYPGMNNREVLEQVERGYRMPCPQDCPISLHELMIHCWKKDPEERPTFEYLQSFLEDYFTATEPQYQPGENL
T7 sequence (Q15569 whole entry): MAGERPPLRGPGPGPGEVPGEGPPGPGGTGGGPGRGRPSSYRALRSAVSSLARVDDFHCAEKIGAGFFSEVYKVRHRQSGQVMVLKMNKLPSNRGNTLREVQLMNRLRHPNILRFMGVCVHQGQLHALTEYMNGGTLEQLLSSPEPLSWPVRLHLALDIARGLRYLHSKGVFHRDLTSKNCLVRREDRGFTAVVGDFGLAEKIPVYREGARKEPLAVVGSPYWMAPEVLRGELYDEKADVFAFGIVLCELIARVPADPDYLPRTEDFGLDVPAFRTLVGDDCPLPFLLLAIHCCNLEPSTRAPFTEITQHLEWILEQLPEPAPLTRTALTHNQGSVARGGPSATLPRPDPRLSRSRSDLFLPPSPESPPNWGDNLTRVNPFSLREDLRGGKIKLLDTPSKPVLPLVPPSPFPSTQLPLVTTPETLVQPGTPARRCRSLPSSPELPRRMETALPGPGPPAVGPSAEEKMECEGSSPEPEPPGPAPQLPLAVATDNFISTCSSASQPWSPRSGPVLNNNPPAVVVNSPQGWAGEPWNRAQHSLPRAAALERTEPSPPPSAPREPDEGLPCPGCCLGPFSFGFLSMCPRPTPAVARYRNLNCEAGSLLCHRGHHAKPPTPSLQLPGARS
T9 sequence (P23458 875-1153 limits assumed): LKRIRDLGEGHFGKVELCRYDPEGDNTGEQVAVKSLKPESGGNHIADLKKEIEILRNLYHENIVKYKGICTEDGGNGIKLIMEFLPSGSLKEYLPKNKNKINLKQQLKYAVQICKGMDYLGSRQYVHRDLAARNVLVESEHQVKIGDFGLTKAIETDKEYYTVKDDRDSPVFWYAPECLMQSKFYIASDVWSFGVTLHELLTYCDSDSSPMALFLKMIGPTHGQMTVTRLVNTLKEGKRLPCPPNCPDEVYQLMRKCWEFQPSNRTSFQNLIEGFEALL
T11 sequence (Q16566 whole entry): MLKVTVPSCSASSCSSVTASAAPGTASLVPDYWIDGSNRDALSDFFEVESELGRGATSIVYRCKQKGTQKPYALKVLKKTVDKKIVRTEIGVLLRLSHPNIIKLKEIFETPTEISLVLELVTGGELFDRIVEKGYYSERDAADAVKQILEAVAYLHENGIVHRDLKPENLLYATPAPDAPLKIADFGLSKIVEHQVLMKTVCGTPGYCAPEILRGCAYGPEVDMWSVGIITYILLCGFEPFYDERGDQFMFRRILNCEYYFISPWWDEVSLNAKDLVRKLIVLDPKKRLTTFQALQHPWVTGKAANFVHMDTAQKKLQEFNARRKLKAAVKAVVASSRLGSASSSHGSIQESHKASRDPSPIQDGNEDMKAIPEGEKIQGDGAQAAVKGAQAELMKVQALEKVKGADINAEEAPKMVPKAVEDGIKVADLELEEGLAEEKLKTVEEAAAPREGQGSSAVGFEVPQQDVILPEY
Sequence of ERK2 (P28482 whole entry): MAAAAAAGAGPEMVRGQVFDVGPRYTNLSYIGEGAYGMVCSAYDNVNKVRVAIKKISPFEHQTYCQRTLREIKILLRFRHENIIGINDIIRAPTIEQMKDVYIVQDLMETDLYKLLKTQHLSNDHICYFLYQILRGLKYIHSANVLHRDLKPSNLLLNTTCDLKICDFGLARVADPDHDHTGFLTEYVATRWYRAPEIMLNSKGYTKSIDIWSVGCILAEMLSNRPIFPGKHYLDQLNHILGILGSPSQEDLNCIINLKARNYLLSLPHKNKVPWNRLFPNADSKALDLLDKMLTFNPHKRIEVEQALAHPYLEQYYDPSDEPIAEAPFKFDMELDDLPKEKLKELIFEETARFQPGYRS
Sequence of YANK3 (Q86UX6 whole entry): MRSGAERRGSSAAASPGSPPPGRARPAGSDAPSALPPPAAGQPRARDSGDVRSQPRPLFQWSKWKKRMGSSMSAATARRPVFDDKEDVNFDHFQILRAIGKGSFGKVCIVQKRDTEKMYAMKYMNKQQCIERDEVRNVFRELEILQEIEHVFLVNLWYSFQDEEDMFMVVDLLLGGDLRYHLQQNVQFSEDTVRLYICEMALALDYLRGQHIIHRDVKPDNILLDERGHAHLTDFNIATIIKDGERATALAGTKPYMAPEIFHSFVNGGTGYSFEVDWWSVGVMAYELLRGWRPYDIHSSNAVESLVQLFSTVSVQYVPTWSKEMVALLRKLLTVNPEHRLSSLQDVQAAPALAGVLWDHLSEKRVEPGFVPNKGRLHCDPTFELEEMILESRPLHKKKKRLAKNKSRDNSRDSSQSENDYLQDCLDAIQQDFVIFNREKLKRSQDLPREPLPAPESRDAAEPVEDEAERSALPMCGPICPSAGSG
T3 sequence (Q13554 whole entry): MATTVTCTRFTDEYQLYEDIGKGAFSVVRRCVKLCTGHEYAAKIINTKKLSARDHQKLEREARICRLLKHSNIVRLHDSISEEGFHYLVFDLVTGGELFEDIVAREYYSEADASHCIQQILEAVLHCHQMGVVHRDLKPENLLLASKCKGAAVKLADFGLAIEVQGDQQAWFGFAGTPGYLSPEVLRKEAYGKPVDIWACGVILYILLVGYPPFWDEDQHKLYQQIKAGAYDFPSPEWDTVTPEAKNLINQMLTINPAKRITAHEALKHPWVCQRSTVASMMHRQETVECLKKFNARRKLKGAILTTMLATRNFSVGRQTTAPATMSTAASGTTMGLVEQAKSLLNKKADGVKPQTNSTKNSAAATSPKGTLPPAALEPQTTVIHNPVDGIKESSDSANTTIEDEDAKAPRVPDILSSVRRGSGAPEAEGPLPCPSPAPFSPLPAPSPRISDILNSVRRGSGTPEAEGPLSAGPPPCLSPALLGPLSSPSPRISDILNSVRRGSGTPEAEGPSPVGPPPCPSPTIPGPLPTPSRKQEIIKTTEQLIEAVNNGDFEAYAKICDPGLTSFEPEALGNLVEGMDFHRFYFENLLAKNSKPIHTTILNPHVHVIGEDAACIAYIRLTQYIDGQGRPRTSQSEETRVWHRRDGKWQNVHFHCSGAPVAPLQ
Sequence of YANK1 (Q8WU08 whole entry): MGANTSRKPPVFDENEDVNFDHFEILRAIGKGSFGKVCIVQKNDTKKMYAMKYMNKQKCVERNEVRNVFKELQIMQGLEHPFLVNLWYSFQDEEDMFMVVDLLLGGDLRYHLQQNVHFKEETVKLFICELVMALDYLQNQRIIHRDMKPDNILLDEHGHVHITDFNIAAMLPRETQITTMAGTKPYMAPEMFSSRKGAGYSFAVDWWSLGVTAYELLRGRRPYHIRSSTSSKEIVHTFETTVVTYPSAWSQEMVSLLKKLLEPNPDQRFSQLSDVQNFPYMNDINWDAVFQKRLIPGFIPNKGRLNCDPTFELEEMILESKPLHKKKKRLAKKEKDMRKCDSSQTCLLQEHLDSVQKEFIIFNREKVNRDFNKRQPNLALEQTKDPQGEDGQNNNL

As to `C=CC(=O)Nc1ccc(OC)c(Nc2cc(-c3[nH]c(CC)nc3-c3cccc(NC(=O)c4cccc5c4NC(=O)c4ccccc4N5)c3)ccn2)c1` [Compound 4], the POC is on record as 95% of control at KIT(V559D+T670I); 64% of control on FYN; 100% of control on EPHB3; 84% of control at YANK1; 8.3% of control on EGFR(L858R+T790M); 83% of control on RIOK2. Besides, the POC was 72% of control at CAMK2B; 100% of control at ERK2; 16% of control on GAK; 85% of control at MARK2; 100% of control on SRPK1; 71% of control on PIK3CD. The POC is given as 92% of control at FLT3(D835H); 3.8% of control at TNK2; 94% of control on TESK1; 84% of control on MYLK; 91% of control in [1]; 69% of control at PRKCH. Moreover, the POC at YANK3 was 96% of control; at LIMK2, 93% of control; on CAMK4 it was 99% of control.
